“Also recorded” adds a separate entry of the source. Positions of bridges follow the written chain, without caps; N, C: chain ends. No end group written: not given here.
Experiments:
[1] = system: RMS cells (RD, Rh4, Rh30); assay: phage binding to RMS cell lines versus normal cells; type: cell-based; settings: control phage
Method: (§1) Figure 1 Validation of selected phages binding on RMS cells in vivo and in vitro. (A) Quantification of binding of single phage clones to different cell lines. Six phages selected from in vitro and in vivo screenings were validated individually in binding assays to three RMS cell lines (embryonal RMS: RD; alveolar RMS: Rh30 and Rh4) as well as to normal myoblasts (SkMC-c) and fibroblast cells (MRC-5). Phage clones are ordered according to the frequency of occurrence. Binding was calculated over non-recombinant T7, depicted are mean values ± SD of three independent experiments. (B) RMS-P3 and RMS-P6 phage distribution in RD mouse xenografts. Homing of phages to tumor was compared to control organs. Binding was normalized over phage T7 and tissue weight. Mean values ± SD of four independent experiments are shown. Numerical values for tumor to organ ratios are indicated above the bars. (C) Validation of RMS-P3 peptide sequence by competition of phage binding. 10^6 RD cells were incubated for 30 min with increasing concentrations of RMS-P3 peptide ([…]) or control peptide ([…]). Then, phages (10^9 pfu) were added for 1 h. Phage binding was normalized over non-recombinant T7. Data are presented as percentage of maximal phage binding obtained in the absence of synthetic peptide. Error bars indicate mean ± SD from three independent experiments. […]

membrane-bound furin = assay: peptide affinity chromatography, RD-FUR lysate; type: binding; settings: western blot, 97kDa
Method: (§2) Figure 5 RMS-P3/RR peptide binds directly to furin and inhibits its activity. Lysates of RD-FUR cells (approximately 1 mg of total protein, upper rows) or purified recombinant furin (250 ng; lower rows) were loaded on a RMS-P3/RR column (A) or on the control peptide column RMS-P3/AA (B). The columns were washed 10 times to remove unbound furin. The loaded RMS-P3/RR-column was eluted first with control peptide RMS-P3/AA, then with peptide RMS-P3/RR. The RMS-P3/AA column was eluted first with RMS-P3/RR and subsequently cross-eluted with the control peptide RMS-P3/AA. The presence of furin in aliquots from the columns (1) after binding, (2) flow through, (3) last wash, (4) control elution and (5) competitive elution with RMS-P3/RR (in A) and […] (in B), respectively, was detected by western blotting. (C) Fixed amounts of recombinant furin (3.3U) were incubated with increasing concentrations of RMS-P3/RR peptide or with control peptide (RMS-P3/AA). Furin activity was measured with the fluorogenic substrate Boc-RRVR-AMC at excitation 370 nm/emission 460 nm. The results of three independent experiments ± SD are shown.
(§3) RMS-P3/RR or control peptide RMS-P3/AA were dissolved in 0.2 M phosphate buffer pH 7.2 to 1 mg/ml and covalently linked to NHS-activated sepharose matrix SpinTrapTM (GE Healthcare, Amersham Biosciences, Switzerland). […]

RD cells = assay: phage binding to RD cells; type: cell-based
Method: as §1
Figure 3 Identification of the receptor for RMS-P3. […] Phage binding was quantified over non-recombinant T7 and compared to the binding of wild type phage RMS-P3. […] After tail vein injection of both FITC-RMS-P3/RR or control peptide RMS-P3/AA and circulation of 10 min, mice were perfused, tumors and control organs were dissected and FITC-peptide distribution (green) was evaluated in cryosections under fluorescence microscopy. […] (C) Expression of proprotein convertases (PCs) measured by microarray profiling of 9 RMS cell lines and 30 RMS biopsy samples. […] Immature membrane-bound furin was detected at 103 kD, mature furin at 97 kD. […]

recombinant human furin [2] = assay: peptide affinity chromatography, recombinant furin; type: binding; settings: recombinant human furin without membrane-domain (81 kD), overnight at 4°C, western blot
Method: as §2, §3

[3] = system: RD xenograft tumors and control organs; assay: FITC-peptide distribution in xenograft mice; type: in vivo, mouse; settings: RD xenografts, i.v., 10 min circulation
Method: Figure 2 FITC-labeled RMS-P3 binding in vitro and distribution in vivo. (A) Visualization of FITC-RMS-P3 peptide binding in normal and cancer cells in vitro. Cultured myoblasts (SkMC-c), fibroblasts (MRC-5), RMS cells (RD) and breast carcinoma cells (MDA-MB 231) were incubated with 100 nM FITC-RMS-P3 peptide for 1 h at 37°C. Fluorescence microscopy of fixed cells is shown. (B) Living RD cells were incubated with FITC-RMS-P3 peptide, subsequently fixed and stained with giantin (red). Colocalization is shown in the merged picture by yellow. Blue staining (DAPI) indicates the nuclei. Magnifications: 40x, scale bars: 20 µm. (C) Distribution of FITC-RMS-P3 and control peptide FITC-RMS-Pctrl in mice xenografts of RD cells. FITC-RMS-P3 or control FITC-RMS-Pctrl peptide were injected i.v. and after 10 minutes of circulation, mice were perfused and tumor and control organs were collected. Cryosections were double-labeled with mouse endothelial vessels markers CD31 and MECA-32 (red). Nuclear staining by DAPI is shown in blue. Magnifications: 40x, scale bars: 20 µm.
Figure 3 Identification of the receptor for RMS-P3. (A) Alanine-scan of the RMS-P3 sequence. RMS-P3 was mutated by replacing each amino acid residue with alanine (codon GCT). All phage mutants were tested individually for binding to RD cells in vitro. Mutated residues are indicated in bold. Phage binding was quantified over non-recombinant T7 and compared to the binding of wild type phage RMS-P3. Depicted are mean values ± SD of three independent experiments. […] (B) FITC-RMS-P3/RR and FITC-RMS-P3/AA distribution in RD xenograft mice. After tail vein injection of both FITC-RMS-P3/RR or control peptide RMS-P3/AA and circulation of 10 min, mice were perfused, tumors and control organs were dissected and FITC-peptide distribution (green) was evaluated in cryosections under fluorescence microscopy. Blood endothelial stainings (CD31 and MECA32) are shown in red, nuclear staining in blue (DAPI). Magnification: 20x, scale bar 50 µm. (C) Expression of proprotein convertases (PCs) measured by microarray profiling of 9 RMS cell lines and 30 RMS biopsy samples. Expression of PCs recognizing the cleavage site R(X)(R/K)(R/K) were considered. Each cell line or biopsy is represented by one data point. (D) Furin expression in different cell lines. Normal myoblasts (SkMC-c), fibroblasts (MRC-5), RMS cell lines (RD, Rh4, Rh30), furin-deficient colorectal carcinoma cells (LoVo) and furin-positive breast carcinoma cells (MBA-MB 231) were tested for furin expression by qRT-PCR (upper graph). […] Western blot (lower panels). Immature membrane-bound furin was detected at 103 kD, mature furin at 97 kD. PCNA was used as loading control.
Figure 6 FITC-RMS-P3/RR and FITC-RMS-P3/AA distribution in mice bearing RD xenografts. Peptides were injected i.v. and after circulation the mice were perfused, tumors and control organs were removed and peptide distribution was evaluated on cryosections by fluorescence microscopy. Depicted are overlay images (B, upper left panel) and single channel pictures. FITC-peptide stainings (green), either furin or endothelial stainings (CD31, MECA32) in red and cell nuclei in blue (DAPI) are shown. Magnification: 40x, scale bars 50 µm.
Supplementary file pone.0010445.s002.tif: Figure S2 Subcellular localization of FITC-RMS-P3 peptide. (A, B) FITC-RMS-P3/RR cell surface and intracellular localization. RD cells were incubated with 100 nM FITC-RMS-P3 peptide in vitro for 30 min at 4°C (A) or 37°C (B), respectively. Fixed cells were stained with undiluted 5.1H11 hybridoma supernatant against the human muscle-specific cell surface antigen N-CAM (red). A secondary rabbit anti-mouse Cy3 antibody (1∶300, Invitrogen) was used for detection. […] Cell nuclei were visualized with DAPI. Nuclei are indicated in grey. Magnification: 63x, scale bars: 20 µm. […]

recombinant human furin [4] = assay: furin activity, fluorogenic substrate Boc-RRVR-AMC; type: biochemical
Method: The enzymatic activity of furin was determined by the cleavage of the fluorogenic substrate Boc-RRVR-AMC (Alexis biochemicals) in presence or absence of peptides. Human recombinant furin (3.3U for reaction; Alexis biochemicals) was preincubated for 15 minutes at RT with the peptide RMS-P3/RR or the peptide RMS-P3/AA as negative control at increasing concentrations. For each assay, the same concentration of substrate (100 µM) was added to a solution containing 50 mM Tris HCl with 1 mM CaCl2 (pH 7) in a total volume of 100 µl. The reaction was followed for 1h while measuring the fluorescence every 10 minutes in a spectrofluorometer at excitation 370 nm/emission 460 nm.

A365 cells = assay: phage binding to melanoma cells; type: cell-based; settings: compared to myoblasts and fibroblasts; p<0.05
Method: (§4) Supplementary file pone.0010445.s001.tif: Figure S1 Phage selection and validation on RMS cells in vivo and in vitro. (A) Biopanning on RD cells in vitro after negative selection on myoblasts (panning I) and (B) fibroblasts (panning II). Enrichment was calculated over non-recombinant phage T7. (C) In vivo selection in Rh4 xenografts. Phages from in vitro selection before enrichment were pooled and used for in vivo selection in Rh4 xenografts. Phages were injected in the tail vein and after 10 min circulation unbound phages were washed by perfusion. Phage binding to tumors and control organs was calculated over non-recombinant phage T7. (D) RMS-P3 and RMS-P6 phage distribution in Rh4 xenografts. Homing of phages in mouse xenografts bearing Rh4 tumors was determined and compared to control organs. Binding was normalized over phage T7 and tissue weight. Mean values of three independent experiments are shown. Numerical values for tumor to organ ratios are indicated above the bars. (E) Quantification of binding of RMS-P3 phage to a panel of tumor cell lines: RMS (RD, Rh30, Rh4), breast tumor (MDA-MB 231), glioblastoma (U87MG), melanoma (A365); and normal myoblasts (SkMC-c) and fibroblast cells (MRC-5). Mean values ± SD of three independent experiments are depicted. (0.55 MB TIF) Click here for additional data file.

MDA-MB 231 cells = assay: phage binding to breast carcinoma cells; type: cell-based; settings: compared to myoblasts and fibroblasts; p<0.05
Method: as §4

RD xenograft tumors = assay: phage homing in RD xenografts; type: in vivo, mouse; settings: for phage binding to tumors versus any other organ: RD (or Rh4) xenografts, One-way ANOVA and Tukey-Kramer HSD
Method: Figure 1 Validation of selected phages binding on RMS cells in vivo and in vitro. (A) Quantification of binding of single phage clones to different cell lines. Six phages selected from in vitro and in vivo screenings were validated individually in binding assays to three RMS cell lines (embryonal RMS: RD; alveolar RMS: Rh30 and Rh4) as well as to normal myoblasts (SkMC-c) and fibroblast cells (MRC-5). Phage clones are ordered according to the frequency of occurrence. Binding was calculated over non-recombinant T7, depicted are mean values ± SD of three independent experiments. (B) RMS-P3 and RMS-P6 phage distribution in RD mouse xenografts. Homing of phages to tumor was compared to control organs. Binding was normalized over phage T7 and tissue weight. Mean values ± SD of four independent experiments are shown. Numerical values for tumor to organ ratios are indicated above the bars. (C) Validation of RMS-P3 peptide sequence by competition of phage binding. 10^6 RD cells were incubated for 30 min with increasing concentrations of RMS-P3 peptide ([…]) or control peptide ([…]). Then, phages (10^9 pfu) were added for 1 h. Phage binding was normalized over non-recombinant T7. Data are presented as percentage of maximal phage binding obtained in the absence of synthetic peptide. Error bars indicate mean ± SD from three independent experiments. […] TEXT PRINTED IN THE PICTURE: (B) RMS-P6: tumor: 1; muscle: 1/6; kidney: 1/8; brain: 1/28; skin: 1/12 | (B) RMS-P3: tumor: 1; muscle: 1/24; kidney: 1/15; brain: 1/12; skin: 1/10 DOUBTS OF THE COPYIST ABOUT THIS PICTURE: Panel B: the picture prints no measure for the numbers over the bars. Each tissue name was assigned from the bar fill and the order of the printed key. / RMS-P6, brain: 1/28, the last digit may be 8 or 6 (small print)
Phage (10^10 pfu) from in vitro biopannings were tail vein injected into mice bearing size-matched RMS tumors (500 mm^3) as described in [57].

Rh4 xenograft tumors = assay: phage homing in Rh4 xenografts; type: in vivo, mouse; settings: aRMS (Rh4) xenograft
Method: as §4

U87MG cells = assay: phage binding to glioblastoma cells; type: cell-based; settings: compared to myoblasts and fibroblasts; p<0.05
Method: as §4

Rh30 cells = assay: phage binding to Rh30 cells; type: cell-based; settings: three independent experiments
Method: as §1

Rh4 cells = assay: phage binding to Rh4 cells; type: cell-based; settings: three independent experiments
Method: as §1

[5] = molecular target: recombinant human furin without membrane-domain (81 kD) (human) (UniProt P09958)

## CSPNNTRRPNKC (disulfide 1-12 (inferred)) [phage RMS-Pctrl, phage displaying […], arose spontaneously during the in vitro screening; negative control]
[1]
  binding to tumor cells: no binding to tumor cells

## CMGTINTATAAC (disulfide 1-12 (inferred)) [RMS-P3/AA]
membrane-bound furin
  furin in competitive eluate from peptide column: not the case
RD cells; alanine-scan, RD cells, three independent experiments, p<0.05
  decrease in phage binding compared to RMS-P3: 70 fold
Recombinant human furin [2]
  binding of recombinant furin to peptide column: did not bind recombinant furin
[3]
  peptide uptake in kidney: found in the kidneys
[3]; cryosections
  peptide accumulation in tumor: did not accumulate in the tumor; also recorded: No fluorescence was detectable

## CMGTINTRTRRC (disulfide 1-12 (inferred)) [RMS-P3/RR]
membrane-bound furin
  furin in competitive eluate from peptide column: competitive eluates contained detectable amounts of membrane-bound furin
RD cells; both Lys replaced by Arg, One-way ANOVA, Tukey Kramer HSD, p<0.05 vs all other alanine mutants
  phage binding to RD cells compared to RMS-P3: no significant difference in binding to RD cells
Recombinant human furin [2]
  binding of recombinant furin to peptide column: detected a furin band in the specific eluate
Recombinant human furin [4]; 100 µM peptide, % of the control, furin 3.3U, 15 min preincubation RT, substrate 100 µM, 50 mM Tris HCl, 1 mM CaCl2, pH 7, three independent experiments
  furin activity remaining: 14 % of the control
Recombinant human furin [4]; increasing concentrations
  effect on furin activity: concentration dependent decrease of furin activity

## CMGTINTRTKKC (disulfide 1-12 (inferred)) [phage RMS-P3]
A365 cells
  phage binding to melanoma cells: significant binding; also recorded: very good binding
MDA-MB 231 cells
  phage binding to breast carcinoma cells: significant binding; also recorded: very good binding
RD xenograft tumors
  phage binding to tumors versus any other organ: bound significantly better to tumors than to any other organ
RD xenograft tumors; phage, eRMS (RD) xenograft
  tumor/muscle ratio: 24 fold
Rh4 xenograft tumors
  tumor/muscle ratio: 24 fold
U87MG cells
  phage binding to glioblastoma cells: significant binding; also recorded: very good binding

## CMGTTNTRTKKC (disulfide 1-12 (inferred)) [RMS-P6]
Rh30 cells
  phage binding compared to non-recombinant phage T7: 120 fold
RD cells; RD cells, three independent experiments
  phage binding compared to non-recombinant phage T7: 1270 fold
Rh4 cells
  phage binding compared to non-recombinant phage T7: 230 fold
RD xenograft tumors
  phage binding to tumors versus any other organ: bound significantly better to tumors than to any other organ

B1: RMS-P3/RR peptide (peptide)
peptide: CMGTINTRTRRC
modifications: not fully specified (bridges); also: cyclic peptide, mode of cyclisation not given here
[5]
  furin activity (cleavage of the fluorogenic substrate Boc-RRVR-AMC by 3.3U recombinant furin) with increasing concentrations of RMS-P3/RR (10-100 µM); activity left at 100 µM (% of the control): 14

From paper PMC2862740, “Furin Targeted Drug Delivery for Treatment of Rhabdomyosarcoma in a Mouse Model” (PLoS ONE, 2010)
